The text below walks through data of patent US20240350659A1, “COMPOSITIONS AND METHODS FOR BIMODAL ANTI-VIRAL COMBINATION THERAPY” (priority 2021, published 2024).

Assay [1] deals with SARS-COV-2. To be noted: WHO Solidarity Trial; cited from earlier work.
The subject of assay [2] is SARS-COV-2. Briefly: In vitro inhibition of SARS-COV-2 replication in Vero E6 cells (viral load by quantitative real-time RT-PCR). To be noted: for effect of removal of the single agent from the formulation on overall activity (FIG. 18): APHR Combination 1 minus one agent. The format is cell-based. On the technique in general: Quantitative PCR measures a nucleic acid by following its amplification.

The subject of assay [3] is SARS-COV-2. Description: Human ACE2 transgenic COVID-19 mouse model (intranasal SARS-COV-2 infection). The settings on record: for Survival (%): Daily. The format is in vivo, mice.
Assay [4] relates to SARS-COV-2. It is filed as in vivo. To be noted: intention-to-treat population; 10 subjects per arm.
Assay [5] concerns SARS-COV-2. To be noted: 5-day course, 476 patients, mild COVID-19; cited from earlier work.
The mark [6] stands for this setting: 200 mg/kg, Pretreatment to Day 7.

As to `Cc1cccc(C)c1OCC(=O)N[C@@H](Cc1ccccc1)[C@@H](O)C[C@H](Cc1ccccc1)NC(=O)[C@H](C(C)C)N1CCCNC1=O` [lopinavir], the “effect on hospitalized patients with Covid-19” value in assay [1] was “little or no effect”. On to `O=C(OC[C@H]1O[C@@H](OC(=O)c2cc(O)c(O)c(OC(=O)c3cc(O)c(O)c(O)c3)c2)[C@H](OC(=O)c2cc(O)c(O)c(OC(=O)c3cc(O)c(O)c(O)c3)c2)[C@@H](OC(=O)c2cc(O)c(O)c(OC(=O)c3cc(O)c(O)c(O)c3)c2)[C@@H]1OC(=O)c1cc(O)c(O)c(OC(=O)c2cc(O)c(O)c(O)c2)c1)c1cc(O)c(O)c(OC(=O)c2cc(O)c(O)c(O)c2)c1` [tannic acid], for which the “effect of removal of the single agent from the formulation on overall activity (FIG. 18)” value in assay [2] is “reduced overall activity”. With `O=c1c(O)c(-c2ccc(O)c(O)c2)oc2cc(O)cc(O)c12` [Quercitin], the “Survival (%)” value in assay [3] (66 mg/kg, Pretreatment to Day 7) is given as 80%; in assay [3] (setting [6]), 100%. As for `CCN(CCO)CCCC(C)Nc1ccnc2cc(Cl)ccc12` (stereo not shown) [hydroxychloroquine], the “effect on hospitalized patients with Covid-19” value in assay [1] is listed as “little or no effect”.

Consider ivermectin, for which the “morbidity, body weight (FIG. 8)” value in assay [3] (β-cyclodextrin Rutin daily from Day 2 post infection, Ivermectin once on Day 2 post infection) was “decreased morbidity”. Also, in assay [4], the “Time to defervescence (days)” value was 4 (3 to 6) days and the “Time to resolution of COVID symptoms (days)” value is given as 4 (3 to 6) days. Besides, the “duration of symptoms compared with placebo” value in assay [5] is “not significantly different”. For `CC(C)=CCC[C@](C)(O)C1CC=C(C)CC1` (stereo partly shown) [bisabolol], the “effect of removal of the single agent from the formulation on overall activity (FIG. 18)” value in assay [2] is recorded as “reduced overall activity”. For `C[C@@H]1O[C@@H](OC[C@H]2O[C@@H](Oc3c(-c4ccc(O)c(O)c4)oc4cc(O)cc(O)c4c3=O)[C@H](O)[C@@H](O)[C@@H]2O)[C@H](O)[C@H](O)[C@H]1O` [rutin], in assay [2] (Severe acute respiratory syndrome coronavirus 2, Vero C1008, 1 μM final concentration, 1:1 molar ratio of cyclodextrin to rutin, read-out: inhibition of SARS-COV-2 replication over untreated (FIG. 16)), the inhibition (usually the change of the read-out against control, counted positive when it falls) at 1 µM was ~25%. In the case of `CCC(CC)COC(=O)[C@H](C)N[P@](=O)(OC[C@H]1O[C@@](C#N)(c2ccc3c(N)ncnn23)[C@H](O)[C@@H]1O)Oc1ccccc1` [Remdesivir], the “Survival (%)” value in assay [3] (50 mg/kg, Day 1 post-treatment to 7) is 100%; in assay [3] (setting [6]), 100%.
